Data published in article PMC7281280, “Is the Way to Fight Cancer Paved with Gold? Metal-Based Carbene Complexes with Multiple and Fascinating Biological Features” (Pharmaceuticals, 2020).
Where two headings read alike, the source gives them in different places.

Assays:
tubulin = experiment: In vitro tubulin-polymerization assay (turbidity at 350 nm); type: biochemical; conditions: 10 µM; for final optical density value at 350 nm (OD350): vehicle (DMSO) about 0.43
Description: Tubulin-polymerization inihibition was measured using in vitro Tubulin-Polymerization Assay Kit purchased fromEMD Millipore Corporation. Polymerization reactions occur in 70 µL final volumes, of which 60 µL is the 60 µM tubulin in 1 × PB-GTP and 10 µL is the test substance dissolved in 1 × PB-GTP. […] These reactives were combined in 96-well plate on ice. After the plate was transferred into the spectrophotometer pre-warmed at 37 °C and the turbidity variation was measured every 30 s at 350 nm for 90 min. The plate was shaked for 10 s before each measurement. Turbidity (absorbance) readings were used to calculate the extent of polymerization [% inhibition = (1−A350 sample/A350 control) × 100].
Figure 4 Tubulin-polymerization assay. […] Two positive control molecules, Paclitaxel and Vinblastine, were used as tubulin-stabilizing and tubulin-destabilizing agents, respectively. DMSO was used as a negative control. Assembly of tubulin into microtubules was determined by measuring the turbidity at 350 nm for 3600 s at 37 °C. All the compounds were used at a concentration of 10 μM.

MDA-MB-231 cells [1] = experiment: Immunofluorescence of microtubules, MDA-MB-231; type: cell-based, human; conditions: at IC50 value, 24 h
Description: (§1) Cells were grown on glass coverslips in full media, then serum-deprived for 24 h and exposed to compounds for 24 h (concentration equal to its IC50 value). Then, the cells after PBS-washed, were fixed with cold methanol (15 min/−20 °C) and incubated with primary antibody, diluted in blocking solution (4 °C/overnight), as previously described. The mouse anti-β-Actin (69879) and the rabbit anti-β tubulin (9104) were purchased from Santa Cruz Biotechnology and used at 1:100 dilution. Coverslips were then washed 3 times with PBS, then fixed cells were incubated with the secondary antibody Alexa Fluor® 568 conjugate goat-anti-mouse and Alexa Fluor® 488 conjugate goat-anti-rabbit (1:500, Thermo Fisher Scientific, Waltham, MA, USA). Nuclei were stained using DAPI (Sigma–Aldrich, Mila, Italy) for 10 min at a concentration of 0.2 μg/mL then washed 3 times with PBS. Fluorescence was detected using a fluorescence microscope (Leica DM 6000). LAS-X software was used to acquire and process all images.
Figure 5 Immunofluorescence studies. […] Panels A: DAPI, excitation/emission wavelength 350 nm/460 nm; panels B: β-tubulin (Alexa Fluor® 488) excitation/emission wavelength 490 nm/515 nm; panels C show a merge. Representative fields are shown.

HeLa cells = experiment: Immunofluorescence of microtubules, HeLa; type: cell-based, human; conditions: at IC50 value, 24 h
Description: as §1
Figure 6 Immunofluorescence studies. HeLa cells were treated with AuL4, Vinblastine, Paclitaxel (used at their IC50 values) or with a vehicle (CTRL) for 24 h. After treatment, the cells were methanol fixed, incubated with primary and secondary antibodies, stained with DAPI and observed and imaged under the inverted fluorescence microscope at 20× magnification (see Materials and methods). […] Panels A: DAPI, excitation/emission wavelength 350 nm/460 nm; panels B: β-tubulin (Alexa Fluor® 488) excitation/emission wavelength 490 nm/515 nm; panels C show a merge. Representative fields are shown.

[2] = tested on: Hek-293 human embryonic kidney epithelial cells; experiment: MTT cell viability, normal Hek-293; type: cell-based; conditions: for IC50: normal cells, MTT, 72 h, mean ± SD, read-out: IC50 Hek-293
Description: (§2) The six cell lines used in this work (MCF-7, MDA-MB-231, HeLa, […], MCF-10A and Hek-293) were purchased from American Type Culture Collection (ATCC, Manassas, VA, USA). MCF-7 human breast cancer cells, estrogen receptor (ER)-positive, were maintained in Dulbecco’s modified Eagle’s medium/nutrient mixture Ham F-12 (DMEM/F12), supplemented with 10% fetal bovine serum (FBS) and 100 U mL^−1 penicillin/streptomycin. MCF-10A human mammary epithelial cells, were cultured in DMEM/F12 medium, supplemented with 5% horse serum (HS, Thermo Fisher Scientific, Milan, Italy), 100 U mL^−1 penicillin/streptomycin, […] hydrocortisone, 20 ng mL^−1 human epidermal growth factor (hEGF), […] insulin, and […] cholera enterotoxin (Sigma–Aldrich, Milan, Italy). MDA-MB-231 human breast cancer cells, known as triple-negative cells (i.e., not overexpressing human epidermal growth factor receptor 2 (HER2), estrogen and progesterone receptors), were cultured in DMEM/F12 supplemented with 5% FBS, 1% L-glutamine and 100 U mL^−1 penicillin/streptomycin. HeLa human epithelial cervix carcinoma cells, estrogen receptor (ER)-negative, and […] human endometrial adenocarcinoma cells, estrogen receptor (ER)-positive, were maintained in minimum essential Eagle’s Medium (MEM), supplemented with 10% FBS, 1% L-glutamine, 100 U mL^−1 penicillin/streptomycin and 1% Non-Essential Amino Acids (NEAA). Hek-293 human embryonic kidney epithelial cells were cultured in DMEM high glucose (4.5 g L^−1), supplemented with 10% FBS, 1% L-glutamine and 100 U mL^–1 penicillin/streptomycin. Cells were maintained at 37 °C in a humidified atmosphere of 95% air and 5% CO2 and periodically screened for contamination.
(§3) Cell viability has been determined using the 3-(4,5-dimethylthiazol-2-y1)-2,5-diphenyltetrazolium bromide (MTT, Sigma–Aldrich, Milan, Italy) assay. Cells have been seeded on 48-well plates and grown in complete medium. Before being treated, cells have been starved in serum free medium for 24 h for allowing cell cycle synchronization. […] Data are representative of three independent experiments; standard deviations (SD) have been shown.

[3] = tested on: HeLa human epithelial cervix carcinoma cells; experiment: MTT cell viability, HeLa; type: cell-based; conditions: 72 h, mean ± SD
Description: as §2, §3

[4] = tested on: ISHIKAWA human endometrial adenocarcinoma cells; experiment: MTT cell viability, […]; type: cell-based; conditions: 72 h, mean ± SD
Description: as §2, §3

[5] = tested on: MCF-7 human breast cancer cells; experiment: MTT cell viability, MCF-7; type: cell-based; conditions: mean ± SD
Description: as §2, §3

[6] = tested on: MDA-MB-231 human breast cancer cells; experiment: MTT cell viability, MDA-MB-231; type: cell-based; conditions: mean ± SD
Description: as §2, §3

[7] = tested on: MCF-10A human mammary epithelial cells; experiment: MTT cell viability, normal MCF-10A; type: cell-based; conditions: 72 h, mean ± SD
Description: as §2, §3

MDA-MB-231 cells [8] = experiment: Detection of intracellular ROS (DCF-DA); type: cell-based, human; conditions: fluorescence microscopy
Description: We used 2,7-dichlorofluorescin diacetate (DCF-DA) as a fluorometric probe for ROS detection and their production was examined under an inverted fluorescence microscope, as already reported.
Cells were grown on glass coverslips until the treatment with compound or menadione (used as positive control) (Sigma–Aldrich, Milan, Italy). Then, cells were incubated with 10 μM 2′-7′-Dichlorofluorescein diacetate (Sigma–Aldrich, Milan, Italy) for 40 min at 37 °C in a 5% CO2 incubator, as previously described. Then, DAPI (0.2 μg mL^−1) counterstain was performed for 10 min at room temperature, in the dark. Cells were then washed three times with cold PBS, adding one drop of mounting solution, then they were observed and imaged under a fluorescence microscope (Leica DM6000; 20× magnification) with excitation/emission wavelength maxima of 490 nm/515 nm (DCF) or 350 nm/460 nm (DAPI). Images are representative of three independent experiments.
Images were acquired at 20× magnification. […] Fields are representative of three separate experiments.

IC50 [3] [µM]	IC50 [4] [µM]	IC50 ([5]; 72 h) [µM]	Structure (SMILES)	IC50 [2] [µM]	IC50 ([6]; 72 h) [µM]	IC50 [7] [µM]	also measured
			CC[C@]1(O)C[C@@H]2CN(CCc3c([nH]c4ccccc34)[C@@](C(=O)OC)(c3cc4c(cc3OC)N(C)[C@H]3[C@@](O)(C(=O)OC)[C@H](OC(C)=O)[C@]5(CC)C=CCN6CC[C@]43[C@@H]65)C2)C1 [vinblastine, reference compound]				effect on tubulin-polymerization reaction (tubulin): tubulin-polymerization inhibition; time to reach the steady state of polymerization curve (tubulin; 37 °C): about 40 min; final optical density value at 350 nm (OD350) (tubulin; 37 °C): less than the half of the vehicle reaction; effect on microtubule network, MDA-MB-231 (MDA-MB-231 cells [1]): microtubules disorganization; effect on microtubule network, HeLa (HeLa cells): microtubules disorganization
			OCc1ccc(-[n+]2ccn(CC(O)c3ccccc3)c2)cc1 (stereo not drawn) [L5, N-[4-(hydroxymethyl)phenyl]-N’-[(2-hydroxy-2-phenyl)ethyl]-imidazolium bromide]				IC50 ([2]; Homo sapiens, HEK293): > 200 µM; IC50 ([3]; Homo sapiens, HeLa): > 200 µM; IC50 ([4]; Homo sapiens, Ishikawa): > 200 µM; IC50 ([5]; Homo sapiens, MCF7, 72 h): > 200 µM; IC50 ([6]; Homo sapiens, MDA-MB-231, 72 h): > 200 µM; IC50 ([7]; Homo sapiens, MCF-10A): > 200 µM
			C[n+]1ccn(CC(O)c2ccccc2)[c]1[Au-][c]1n(CC(O)c2ccccc2)cc[n+]1C.[Cl][Au-][Cl] (racemic) [AuL3]		3.43 ± 1		
44.5 ± 0.9	54.9 ± 1	18.2 ± 0.5	OCc1ccc(-n2cc[n+](CC(O)c3ccccc3)[c]2[Au-][Br])cc1 (racemic) [AuL5]	> 200	31.7 ± 0.8	> 200	
47.7 ± 0.4	26.7 ± 0.5	29.7 ± 0.3	OC(Cn1cc[n+](CC(O)c2ccccc2)[c]1[Ag-][c]1n(CC(O)c2ccccc2)cc[n+]1CC(O)c1ccccc1)c1ccccc1.[I][Ag-][I] (mixture of isomers) [AgL6]	> 200	57.9 ± 0.5	143.4 ± 0.8	
9.76 ± 0.6	6.55 ± 0.9	10.5 ± 0.8	C[n+]1c(Cl)c(Cl)n(CC(O)c2ccccc2)[c]1[Ag-][c]1n(CC(O)c2ccccc2)c(Cl)c(Cl)[n+]1C.[I][Ag-][I] (racemic) [AgL7, bis-[4,5-dichloro-(N-methyl-N’(2-hydroxy-2-phenyl)ethyl-imidazole-2-ylidene]silver(I)]^+[di-iodide-silver]^−]	> 200	3.22 ± 1.2	> 200	
			CC1=CC(=O)c2ccccc2C1=O [menadione, reference compound]				ROS production (DCF green fluorescence) (MDA-MB-231 cells [8]): increased ROS production
> 200	> 200	> 200	OCc1ccc(-n2ccn(CC(O)c3ccccc3)[c]2=[Ag][Br])cc1 (stereo not drawn) [AgL5]	> 200	> 200	> 200	
			OC(Cn1cc[n+](CC(O)c2ccccc2)c1)c1ccccc1 (stereo not drawn) [L6]				IC50 ([2]; Homo sapiens, HEK293): > 200 µM; IC50 ([3]; Homo sapiens, HeLa): > 200 µM; IC50 ([4]; Homo sapiens, Ishikawa): > 200 µM; IC50 ([5]; Homo sapiens, MCF7, 72 h): > 200 µM; IC50 ([6]; Homo sapiens, MDA-MB-231, 72 h): > 200 µM; IC50 ([7]; Homo sapiens, MCF-10A): > 200 µM
			CC(=O)O[C@H]1C(=O)[C@@]2(C)[C@H]([C@H](OC(=O)c3ccccc3)[C@]3(O)C[C@H](OC(=O)[C@H](O)[C@@H](NC(=O)c4ccccc4)c4ccccc4)C(C)=C1C3(C)C)[C@]1(OC(C)=O)CO[C@@H]1C[C@@H]2O [paclitaxel]				final optical density value at 350 nm (OD350) (tubulin; 37 °C): about 0.51; effect on microtubule network, MDA-MB-231 (MDA-MB-231 cells [1]): microtubules non-reversible polymerization; effect on microtubule network, HeLa (HeLa cells): microtubules non-reversible polymerization
			C[n+]1ccn(CC(O)c2ccccc2)[c]1[Ag-][c]1n(CC(O)c2ccccc2)cc[n+]1C.[I][Ag-][I] (racemic) [AgL3]				IC50 MDA-MB-231 ([6]; 72 h): completely inactive
			O=c1c(O)c(-c2ccc(O)c(O)c2)oc2cc(O)cc(O)c12 [Quercetin, reference compound]				increase of the Hek-293 cells viability vs AuL7 alone ([2]; pre-treatment for 4 h with Quercetin (at 50 μM), then AuL7): about 1.5 fold

Structure (SMILES)	IC50 [3] [µM]	IC50 [4] [µM]	IC50 ([5]; 72 h) [µM]	IC50 [2] [µM]	IC50 ([6]; 72 h) [µM]	IC50 [7] [µM]	also measured
N.N.[Cl][Pt][Cl] [Cis-platin, Cisplatin, reference compound]	15.7 ± 1.1	15.1 ± 0.8	35.8 ± 1.3	16.8 ± 0.4	28.7 ± 1	81.3 ± 1.2	
C[n+]1cn(CC(O)c2ccccc2)c(Cl)c1Cl (stereo not drawn) [L7]	> 200	> 200	> 200	> 200	> 200	> 200	
OC(Cn1ccn(CC(O)c2ccccc2)[c]1=[AuH]=[c]1n(CC(O)c2ccccc2)ccn1CC(O)c1ccccc1)c1ccccc1.[Cl][AuH][Cl] (stereo not drawn) [AuL6]	98.6 ± 1.2	12.6 ± 0.3	9.38 ± 0.2	> 200	53.7 ± 0.7	158.8 ± 1	
